Values after ≈ are worked out from the molar mass of the structure shown. “Also recorded” adds a separate entry of the source. Like-named read-outs stand apart in the source and are kept apart here.
What was measured:
[1] = DPPH radical scavenging (antioxidant) assay; conditions: for IC50: DPPH 300 μM, half an hour at 37°C; for DPPH radical scavenging activity compared to standard propyl gallate: in words
Protocol: The free radical scavenging capacity of the compounds was measured by 1,1-diphenyl-2-picrylhydrazyl. Test compounds were allowed to react with stable free radical, 1,1-diphenyl-2-picrylhydrazyl radical (DPPH) for half an hour at 37°C. The concentration of DPPH was kept as 300 μM. The test samples were dissolved in DMSO while the DPPH solution was prepared in ethanol. After incubation, decrease in absorption was measured at 515 nm using microplate reader. Percent radical scavenging activity of samples was determined in comparison with a DMSO treated as control. Propyl gallate and 3-tert-Butyl-4-hydroxyanisole were used as standards.

Jack bean urease = Jack bean urease (Canavalia ensiformis, UniProt P07374); assay: biochemical; assay type: biochemical; conditions: for Urease inhibitory activity in words: qualitative statement
Bacillus subtilis = assay: Antibacterial activity, serial tube dilution MIC; assay type: cell-based; conditions: for MIC: Bacillus subtilis, read-out: MIC B. subtilus
Protocol: (§1) The antibacterial activity data is represented in Table 2. […] Ciprofloxacin was used as standard drug. The compounds were found active against bacterial strains (2 Gram positive bacteria, namely, Staphylococcus aureus, Bacillus subtilis, and 2 Gram negative bacteria namely Escherichia coli, Shigella flexneri) in variable concentration. The antibacterial activities of 1,3,4-oxadiazole derivatives were evaluated in vitro by serial tube dilution method. The compounds and standard drug ciprofloxacin were dissolved in N,N-dimethylformamide (DMF) to give a concentration of 5 μg/mL (stock solution). Necessary apparatus and test tubes set of capacity 5 mL was washed cleaned and completely dried. For the bacterial culture double strength nutrient broth was used. The culture media was made by dissolving 15 g of nutrient broth in 1 L of distilled water. Approximately, 1 mL of culture media was prepared and transferred to each test tube by micropipette and capped with non-adsorbent cotton plugs. The test tubes containing 1 mL culture media was sterilized in an autoclave at 121°C for 20 min at 15 psi pressure. Sub-culturing of bacteria was done by transferring a loopful of particular bacterial strain from standard bacterial agar to 10 mL sterilized nutrient broth aseptically in a laminar air flow cabinet. It was then incubated for a period of 24 h at 37°C in a B. O. D. incubator. Bacterial strain suspension was prepared, after 24 h incubation, by aseptically inoculating 0.2 mL of revived bacterial colony into 100 mL of 0.9% m/v saline. A series of 5 assay tubes for a single derivative against each bacterial strain was employed. A stock solution of each test derivative at concentration 5 μg/mL (containing 1 mL nutrient broth) was serially diluted to achieve concentrations of 2.5, 1.25, 0.625, 0.313, and 0.156 μg/mL. Then, 0.1 mL of normal saline suspension of revived bacteria was added to each test tube. The inoculated tubes were incubated at 37°C for 24 h. The MIC (minimum inhibitory concentration) values were determined by subsequently checking for the absence of visual turbidity.

Escherichia coli = assay: Antibacterial activity, serial tube dilution MIC; assay type: cell-based; conditions: for MIC: Escherichia coli, 24 h, read-out: MIC E. coli; for Antibacterial activity against E. coli compared to standard ciprofloxacin: in words
Protocol: as §1

Shigella flexneri = assay: Antibacterial activity, serial tube dilution MIC; assay type: cell-based; conditions: for MIC: Shigella flexneri, read-out: MIC S. flexneri; for Antibacterial activity against S. flexneri compared to standard ciprofloxacin: in words
Protocol: as §1

Staphylococcus aureus = assay: Antibacterial activity, serial tube dilution MIC; assay type: cell-based; conditions: for MIC: Staphylococcus aureus, read-out: MIC S. aureus; for Antibacterial activity against S. aureus compared to standard ciprofloxacin: in words
Protocol: as §1

[2] = average of three readings, 24 h at 37°C

Sequence of Jack bean urease (P07374 whole entry, looked up): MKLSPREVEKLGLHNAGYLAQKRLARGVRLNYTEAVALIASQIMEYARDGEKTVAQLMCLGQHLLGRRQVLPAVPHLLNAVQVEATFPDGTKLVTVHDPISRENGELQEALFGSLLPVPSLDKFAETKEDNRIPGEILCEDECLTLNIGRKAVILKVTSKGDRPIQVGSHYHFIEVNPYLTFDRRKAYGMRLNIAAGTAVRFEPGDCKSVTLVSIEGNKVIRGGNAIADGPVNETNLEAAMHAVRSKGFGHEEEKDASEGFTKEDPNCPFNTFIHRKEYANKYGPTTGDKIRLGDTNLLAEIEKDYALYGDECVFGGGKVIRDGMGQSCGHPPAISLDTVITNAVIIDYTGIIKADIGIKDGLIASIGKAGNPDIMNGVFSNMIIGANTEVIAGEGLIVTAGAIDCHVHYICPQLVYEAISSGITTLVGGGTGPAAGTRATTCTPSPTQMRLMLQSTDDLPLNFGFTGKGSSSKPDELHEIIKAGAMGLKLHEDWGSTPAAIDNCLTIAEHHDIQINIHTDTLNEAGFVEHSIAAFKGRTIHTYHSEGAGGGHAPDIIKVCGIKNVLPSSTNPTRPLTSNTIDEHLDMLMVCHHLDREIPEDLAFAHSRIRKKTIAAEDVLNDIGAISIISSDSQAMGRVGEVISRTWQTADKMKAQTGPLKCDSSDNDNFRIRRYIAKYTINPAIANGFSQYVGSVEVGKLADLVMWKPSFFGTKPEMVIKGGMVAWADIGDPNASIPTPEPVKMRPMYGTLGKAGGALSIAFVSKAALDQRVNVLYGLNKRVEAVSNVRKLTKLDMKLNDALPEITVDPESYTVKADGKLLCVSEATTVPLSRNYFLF

SMILES	IC50 [1] [µM]	IC50 (Jack bean urease) [µM]	Antibacterial activity against B. subtilus relative to ciprofloxacin (Bacillus subtilis) [fold]	MIC (Bacillus subtilis; [2]) [µg/mL]	MIC (Escherichia coli; [2]) [µg/mL]	MIC (Shigella flexneri; [2]) [µg/mL]	MIC (Staphylococcus aureus; [2]) [µg/mL]	Antibacterial activity against S. aureus compared to standard ciprofloxacin (Staphylococcus aureus)	MIC (Bacillus subtilis; 24 h) [µg/mL]	Antibacterial activity against S. flexneri compared to standard ciprofloxacin (Shigella flexneri)	MIC (Staphylococcus aureus; 24 h) [µg/mL]	Antibacterial activity against E. coli compared to standard ciprofloxacin (Escherichia coli)	DPPH radical scavenging activity compared to standard propyl gallate [1]	Urease inhibitory activity in words (Jack bean urease)	MIC (Escherichia coli) [µg/mL]	Urease inhibitory activity relative to the standard (thiourea) (Jack bean urease; more active than the standard) [fold]	inhibition at 100 µM (Jack bean urease; read-out: % inhibition of Jack bean urease) [%]	IC50 (Jack bean urease; triplicate, thiourea standard, read-out: IC50 ± SEM, inhibitory activity against Jack bean urease) [µM]	MIC (Shigella flexneri; 24 h) [µg/mL]
COc1ccc(O)c(C(C)(C)C)c1 [3-tert-Butyl-4-hydroxyanisole, reference compound]	28.2 ± 1.1																		
Fc1ccccc1Cc1n[nH]c(=S)o1 [Compound 4f, 5-(2-Fluorobenzyl)-1,3,4-oxadiazole-2(3H)-thione]	46.6 ± 4.6	3.27 ± 0.3	4	0.156 (≈ 0.742 µM)	0.313 (≈ 1.49 µM)	1.25 (≈ 5.95 µM)	0.156 (≈ 0.742 µM)	equipotent activity											
COc1cccc(Cc2n[nH]c(=S)o2)c1 [Compound 4n, 5-(3-Methoxybenzyl)-1,3,4-oxadiazole-2(3H)-thione]	60.3 ± 4.3	12.2 ± 0.05	4		0.625 (≈ 2.81 µM)	0.156 (≈ 0.702 µM)		equipotent activity	0.156 (≈ 0.702 µM)	two-fold activities	0.156 (≈ 0.702 µM)								
S=c1[nH]nc(Cc2ccc(Br)cc2)o1 [Compound 4c, 5-(4-Bromobenzyl)-1,3,4-oxadiazole-2(3H)-thione]	38 ± 4.1	11.8 ± 0.4	4		2.5 (≈ 9.22 µM)	0.156 (≈ 0.575 µM)	0.625 (≈ 2.31 µM)		0.156 (≈ 0.575 µM)	two-fold activities		considerably less active	more effective						
COc1ccccc1CCc1n[nH]c(=S)o1 [Compound 4i, 5-(2-Methoxyphenethyl)-1,3,4-oxadiazole-2(3H)-thione]	40.2 ± 3.3	6.22 ± 0.4		0.625 (≈ 2.64 µM)	0.156 (≈ 0.66 µM)	0.313 (≈ 1.32 µM)				equipotent activity	0.313 (≈ 1.32 µM)	equipotent	Equipotent						
CCCOC(=O)c1cc(O)c(O)c(O)c1 [Propyl gallate, reference compound]	40.8 ± 1.2																		
COc1ccccc1Cc1n[nH]c(=S)o1 [Compound 4m, 5-(2-Methoxybenzyl)-1,3,4-oxadiazole-2(3H)-thione]	42.7 ± 3.7	5.6 ± 0.6	4	0.156 (≈ 0.702 µM)	0.625 (≈ 2.81 µM)	0.313 (≈ 1.41 µM)	1.25 (≈ 5.62 µM)			equipotent activity									
COc1ccc(CCc2n[nH]c(=S)o2)cc1 [Compound 4g, 5-(4-Methoxyphenethyl)-1,3,4-oxadiazole-2(3H)-thione]	50.8 ± 2.1	5.61 ± 0.3		0.625 (≈ 2.64 µM)	0.156 (≈ 0.66 µM)	0.313 (≈ 1.32 µM)	2.5 (≈ 10.6 µM)			equipotent activity		equipotent							
S=c1[nH]nc(Cc2ccc(Cl)c(Cl)c2)o1 [Compound 4e, 5-(3,4-Dichlorobenzyl)-1,3,4-oxadiazole-2(3H)-thione]	59 ± 6.3	11.3 ± 0.6		0.625 (≈ 2.39 µM)	0.156 (≈ 0.597 µM)	0.313 (≈ 1.2 µM)				equipotent activity	0.313 (≈ 1.2 µM)	equipotent							
COc1cccc(CCc2n[nH]c(=S)o2)c1 [Compound 4o, 5-(3-Methoxyphenethyl)-1,3,4-oxadiazole-2(3H)-thione]	43.6 ± 3.1	15.1 ± 0.8		0.625 (≈ 2.64 µM)	0.313 (≈ 1.32 µM)	0.156 (≈ 0.66 µM)	2.5 (≈ 10.6 µM)			two-fold activities									
S=c1[nH]nc(-c2cc3ccccc3[nH]2)o1 [Compound 4b, 5-(1H-Indol-2-yl)-1,3,4-oxadiazole-2(3H)-thione]	107 ± 3.4	21.3 ± 0.7			0.625 (≈ 2.88 µM)	0.313 (≈ 1.44 µM)	0.156 (≈ 0.718 µM)	equipotent activity	0.313 (≈ 1.44 µM)	equipotent activity				nearly same activity					
COc1ccc(-c2n[nH]c(=S)o2)c(OC)c1OC [Compound 4a, 5-(2,3,4-Trimethoxyphenyl)-1,3,4-oxadiazole-2(3H)-thione]	123 ± 5.1	5.79 ± 0.3	4	0.156 (≈ 0.581 µM)		0.313 (≈ 1.17 µM)	1.25 (≈ 4.66 µM)			equipotent activity					0.313 (≈ 1.17 µM)				
S=c1[nH]nc(Cc2ccc(Cl)cc2)o1 [Compound 4j, 5-(4-Chlorobenzyl)-1,3,4-oxadiazole-2(3H)-thione]	51.6 ± 2.1	1.15 ± 0.2		1.25 (≈ 5.51 µM)	0.313 (≈ 1.38 µM)	0.156 (≈ 0.688 µM)	0.313 (≈ 1.38 µM)			two-fold activities						20			
S=c1[nH]nc(Cc2ccccc2Cl)o1 [Compound 4k, 5-(2-Chlorobenzyl)-1,3,4-oxadiazole-2(3H)-thione]	34.4 ± 3.2	12.9 ± 0.6		0.313 (≈ 1.38 µM)		0.156 (≈ 0.688 µM)		equipotent activity		two-fold activities	0.156 (≈ 0.688 µM)	equipotent	more effective		0.156 (≈ 0.688 µM)				
Fc1cc(Cl)ccc1-c1n[nH]c(=S)o1 [Compound 4r, 5-(4-Chloro-2-fluorophenyl)-1,3,4-oxadiazole-2(3H)-thione]	10.8 ± 0.2					0.313 (≈ 1.36 µM)	0.156 (≈ 0.676 µM)	equipotent activity	0.313 (≈ 1.36 µM)	equipotent activity		equipotent; also recorded: considerably less active	four-fold	weak inhibitory activities			39		
NC(N)=S [Thiourea, reference compound]																		22.3 ± 1.2	
O=C(O)c1cn(C2CC2)c2cc(N3CCNCC3)c(F)cc2c1=O [Ciprofloxacin, reference compound]				0.625 (≈ 1.89 µM)	0.156 (≈ 0.471 µM)		0.156 (≈ 0.471 µM)												0.31 (≈ 0.936 µM)
COc1ccc(Cc2n[nH]c(=S)o2)cc1 [Compound 4l, 5-(4-Methoxybenzyl)-1,3,4-oxadiazole-2(3H)-thione]	88.2 ± 4.1	5.83 ± 0.08		2.5 (≈ 11.2 µM)	0.313 (≈ 1.41 µM)	0.156 (≈ 0.702 µM)	0.625 (≈ 2.81 µM)			two-fold activities									
S=c1[nH]nc(Cc2ccc(Cl)cc2Cl)o1 [Compound 4h, 5-(2,4-Dichlorobenzyl)-1,3,4-oxadiazole-2(3H)-thione]	57.8 ± 1.8	42.4 ± 1.2	4		1.25 (≈ 4.79 µM)	0.156 (≈ 0.597 µM)	0.625 (≈ 2.39 µM)		0.156 (≈ 0.597 µM)	two-fold activities		considerably less active		weak inhibitory activities					

From publication PMC3425833, “Synthesis, Urease Inhibition, Antioxidant, Antibacterial, and Molecular Docking Studies of 1,3,4-Oxadiazole Derivatives” (ISRN Pharmacology, 2012)
